Measurements: patent US20060292683A1, “Cross-beta structures on microbial organisms” (Crossbeta Biosciences B.V., priority 2005, published 2006)

Legend:
THP-1 monocytes = test: Tissue factor up-regulation in THP-1 monocytes by misfolded proteins; format: cell-based; details: 40 μg/ml glycated hemoglobin or 10 μg/ml amyloid-β(1-40); controls freshly dissolved
Procedure: For tissue factor expression analysis purposes, THP-1 cells were cultured in IMDM without gentamycin and streptomycin. At day 0, one ml of cells was seeded at 1×10^6 cells/ml in the wells of six-well culture plates. At day 1, […] PBS or with cross-beta structure binding compounds ThT, Congo red, tPA and IgIV, as described above, at a cell density of 1.8×10^7/ml (regular culturing conditions). Negative control was buffer. After six hours, the cells were pelleted by centrifugation and resuspended in 100 μl TBS (50 mM Tris-HCl, 150 mM NaCl, pH 7.0-7.3). Next, the cells were frozen and thawed for four subsequent cycles. Cells were centrifuged for ten minutes at 16,000*g and the supernatant was used for analysis of tissue factor (TF) expression. First, protein concentrations were determined using an established protein concentration assay (Bicinchoninic Acid (BCA) Protein Assay). Protein concentrations were equalized between samples with TBS to correct for variations in cell density. […] Conversion of the substrate by activated factor X at 37° C. was recorded in time for 100 minutes, by absorbance readings at 405 nm. As an additional control, factor X activity was assessed with S. aureus cells only, omitting the monocytes. […]

[1] = target: glycated hemoglobin (Hb-AGE) (Homo sapiens, UniProt P68871+P69905); test: ELISA capture of glycated hemoglobin from solution by immobilized finger domains; format: binding; details: immobilized finger domain; not control hemoglobin
glycated hemoglobin (Hb-AGE), sequence (P69905 whole entry, the tested form may be a part): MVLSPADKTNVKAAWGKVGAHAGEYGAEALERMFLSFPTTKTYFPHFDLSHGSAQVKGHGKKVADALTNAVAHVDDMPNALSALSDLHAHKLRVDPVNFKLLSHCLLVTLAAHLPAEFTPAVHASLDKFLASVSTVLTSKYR
glycated hemoglobin (Hb-AGE), sequence (P68871 whole entry, the tested form may be a part): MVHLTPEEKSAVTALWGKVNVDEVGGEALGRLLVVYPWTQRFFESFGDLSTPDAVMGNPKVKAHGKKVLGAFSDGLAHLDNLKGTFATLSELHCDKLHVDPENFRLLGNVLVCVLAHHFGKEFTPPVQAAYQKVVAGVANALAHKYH

Row | Substance | TF expression in THP-1 monocytes (factor X activation by lysates) (THP-1 monocytes) | capture of glycated hemoglobin in solution [1]
1 | amyloid-β: amyloid-β(1-40) with cross-beta structure conformation | induce elevated levels of TF | 
2 | fibronectin F4-5 with a His-tag: recombinant fibronectin type I domains 4-5, N-terminally tagged to growth hormone and His6-tag, C-terminal His6-tag |  | specifically capture
